Results published in the NIST ThermoML archive (doi:10.1016/j.jct.2012.11.007).

Assay: mn = molality of the nth substance listed, in mol/kg
Settings: 101 kPa, Liquid; for mass density: Vibrating tube method; for speed of sound: Pulse-echo method

CCNC(=O)NCC [1,3-diethylurea] + O
Settings	mass density, 288.15 K [kg/m3]	mass density, 293.15 K [kg/m3]	mass density, 298.15 K [kg/m3]	mass density, 303.15 K [kg/m3]	mass density, 308.15 K [kg/m3]	speed of sound, 298.15 K [m/s]
m1 = 0.06282	999.298	998.383	997.207	995.788	994.155	1501.8
m1 = 0.1269	999.524	998.589	997.392	995.959	994.306	1507
m1 = 0.1909	999.768	998.812	997.588	996.14	994.468	1512.1
m1 = 0.2561	1000.03	999.043	997.793	996.313	994.634	1517.2
m1 = 0.3224	1000.31	999.289	998.012	996.517	994.82	1522.3

CNC(=O)NC [1,3-dimethylurea] + O
Settings	mass density, 288.15 K [kg/m3]	mass density, 293.15 K [kg/m3]	mass density, 298.15 K [kg/m3]	mass density, 303.15 K [kg/m3]	mass density, 308.15 K [kg/m3]	speed of sound, 298.15 K [m/s]
m1 = 0.06095	999.619	998.707	997.534	996.121	994.493	1499.8
m1 = 0.1226	1000.15	999.227	998.04	996.616	994.975	1503
m1 = 0.1846	1000.69	999.75	998.549	997.113	995.461	1506.1
m1 = 0.247	1001.24	1000.28	999.063	997.613	995.947	1509.2
m1 = 0.3099	1001.79	1000.82	999.585	998.121	996.442	1512.3

CCCCNC(N)=O [N-butylurea] + O
Settings	mass density, 288.15 K [kg/m3]	mass density, 293.15 K [kg/m3]	mass density, 298.15 K [kg/m3]	mass density, 303.15 K [kg/m3]	mass density, 308.15 K [kg/m3]	speed of sound, 298.15 K [m/s]
m1 = 0.05745	999.477	998.55	997.366	995.939	994.3	1501.5
m1 = 0.1154	999.871	998.918	997.706	996.251	994.591	1506.3
m1 = 0.173	1000.27	999.281	998.053	996.57	994.872	1511.2
m1 = 0.2305	1000.68	999.67	998.404	996.892	995.175	1516
m1 = 0.2873	1001.11	1000.06	998.771	997.219	995.477	1520.9

CCNC(N)=O [ethylurea] + O
Settings	mass density, 288.15 K [kg/m3]	mass density, 293.15 K [kg/m3]	mass density, 298.15 K [kg/m3]	mass density, 303.15 K [kg/m3]	mass density, 308.15 K [kg/m3]	speed of sound, 298.15 K [m/s]
m1 = 0.06285	999.725	998.807	997.629	996.213	994.58	1500
m1 = 0.1203	1000.29	999.358	998.163	996.73	995.083	1503.1
m1 = 0.179	1000.88	999.919	998.707	997.258	995.602	1506.2
m1 = 0.2358	1001.44	1000.47	999.234	997.769	996.09	1509.1
m1 = 0.3016	1002.09	1001.09	999.839	998.357	996.661	1512.5

CNC(N)=O [methylurea] + O
Settings	mass density, 288.15 K [kg/m3]	mass density, 293.15 K [kg/m3]	mass density, 298.15 K [kg/m3]	mass density, 303.15 K [kg/m3]	mass density, 308.15 K [kg/m3]	speed of sound, 298.15 K [m/s]
m1 = 0.06094	999.856	998.94	997.762	996.348	994.718	1499.1
m1 = 0.1225	1000.62	999.688	998.491	997.062	995.418	1501.5
m1 = 0.1837	1001.38	1000.42	999.21	997.766	996.108	1503.9
m1 = 0.2452	1002.13	1001.16	999.928	998.469	996.799	1506.3
m1 = 0.3076	1002.89	1001.9	1000.66	999.182	997.498	1508.7

NC(N)=O [urea] + O
Settings	mass density, 288.15 K [kg/m3]	mass density, 293.15 K [kg/m3]	mass density, 298.15 K [kg/m3]	mass density, 303.15 K [kg/m3]	mass density, 308.15 K [kg/m3]	speed of sound, 298.15 K [m/s]
m1 = 0.06521	1000.18	999.268	998.076	996.664	995.029	1498.5
m1 = 0.1233	1001.14	1000.2	998.994	997.564	995.915	1500
m1 = 0.1812	1002.09	1001.13	999.906	998.455	996.792	1501.5
m1 = 0.2403	1003.05	1002.07	1000.83	999.361	997.684	1503.1
m1 = 0.3004	1004.03	1003.02	1001.76	1000.28	998.584	1504.6
